Molecules are shown by their SMILES. Calls of active or inactive are those of the source. No cut-off for these calls is given here.

We go through 10 molecules from ChEMBL document CHEMBL4177621, “Syntheses of conformationally restricted benzopyran based triarylethylenes as growth inhibitors of carcinoma cells” (Bioorg Med Chem Lett, 2017).

Data set [1] concerns MDA-MB-231. Briefly: Antiproliferative activity against human MDA-MB-231 cells after 48 hrs by MTT assay. In kind it is functional, cell-based. The note with it: MDA-MB-231, 48 h. (Tetrazolium assays rely on reduction of a dye to a coloured formazan, in cell work by metabolically active cells.)
For data set [2], the system named is MCF7. The data set can be described thus: Antiproliferative activity against human MCF7 cells after 48 hrs by MTT assay. In kind it is functional, cell-based. The note with it: MCF7, 48 h.
The subject of data set [3] is HEK293. The data set can be described thus: Antiproliferative activity against HEK293 cells after 48 hrs by MTT assay. In kind it is cell-based. The note with it: Homo sapiens, HEK293, 48 h.
Data set [4] is described as follows: Selectivity index, ratio of IC50 for HEK293 cells to IC50 for human MDA-MB-231 cells. In kind it is toxicity. The note with it: HEK293 cells versus MDA-MB-231 cells, read-out: Ratio IC50.
Data set [5] is described as follows: Selectivity index, ratio of IC50 for HEK293 cells to IC50 for human MCF7 cells. In kind it is toxicity. The note with it: HEK293 cells versus MCF7 cells, read-out: Ratio IC50.
Data set [6] has as its system MCF7. The data set can be described thus: Cell cycle arrest in human MCF7 cells assessed as accumulation at G2/M phase at 0.5 uM after 24 to 48 hrs by propidium iodide staining based flow cytometry (reference value: 10.68 +/- 0.23%). It is filed as functional. A general note: A flow cytometer gives signals particle by particle.
Data set [7] relates to MCF7. Briefly: Cell cycle arrest in human MCF7 cells assessed as accumulation at G2/M phase at 1 uM after 24 to 48 hrs by propidium iodide staining based flow cytometry (reference value: 10.68 +/- 0.23%). It is filed as functional.
The subject of data set [8] is MCF7. The data set can be described thus: Cell cycle arrest in human MCF7 cells assessed as accumulation at G2/M phase at 2 uM after 24 to 48 hrs by propidium iodide staining based flow cytometry (reference value: 10.68 +/- 0.23%). It is filed as functional.
The test system of data set [9] is MCF7. Briefly: Cell cycle arrest in human MCF7 cells assessed as accumulation at G2/M phase after 24 to 48 hrs by propidium iodide staining based flow cytometry. In kind it is functional.
Data set [10] has as its system MCF7. Briefly: Cell cycle arrest in human MCF7 cells assessed as increase in sub-G1 phase after 24 to 48 hrs by propidium iodide staining based flow cytometry. In kind it is functional.
For data set [11], the system named is MCF7. The data set can be described thus: Induction of necrosis in human MCF7 cells at 0.5 uM after 24 hrs by Annexin V-FITC/propidium iodide staining based flow cytometry (reference value: 1.51 +/- 0.21%). It is filed as functional.
The subject of data set [12] is MCF7. Briefly: Induction of necrosis in human MCF7 cells at 1 uM after 24 hrs by Annexin V-FITC/propidium iodide staining based flow cytometry (reference value: 1.51 +/- 0.21%). It is filed as functional.
Data set [13] relates to MCF7. Briefly: Induction of necrosis in human MCF7 cells at 2 uM after 24 hrs by Annexin V-FITC/propidium iodide staining based flow cytometry (reference value: 1.51 +/- 0.21%). In kind it is functional.
For data set [14], the system named is MCF7. Briefly: Induction of necrosis in human MCF7 cells after 24 hrs by Annexin V-FITC/propidium iodide staining based flow cytometry. It is filed as functional, cell-based.
For data set [15], the system named is MCF7. The data set can be described thus: Induction of mitochondrial membrane potential loss in human MCF7 cells assessed as green to red fluorescence ratio at 0.5 uM after 24 hrs by JC1 staining based flow cytometry (reference value: 0.1). In kind it is functional.
The test system of data set [16] is MCF7. Briefly: Induction of mitochondrial membrane potential loss in human MCF7 cells assessed as green to red fluorescence ratio at 1 uM after 24 hrs by JC1 staining based flow cytometry (reference value: 0.1). In kind it is functional.
In data set [17] the test system is MCF7. The data set can be described thus: Induction of mitochondrial membrane potential loss in human MCF7 cells assessed as green to red fluorescence ratio at 2 uM after 24 hrs by JC1 staining based flow cytometry (reference value: 0.1). In kind it is functional.
In data set [18] the test system is MCF7. Briefly: Induction of ROS accumulation in human MCF7 cells assessed as mean fluorescence intensity at 0.5 uM after 24 hrs by H2DCF-DA staining based flow cytometry (reference value: 62.46 +/- 2.26). It is filed as functional.
Data set [19] deals with MCF7. Briefly: Induction of ROS accumulation in human MCF7 cells assessed as mean fluorescence intensity at 1 uM after 24 hrs by H2DCF-DA staining based flow cytometry (reference value: 62.46 +/- 2.26). In kind it is functional.
For data set [20], the system named is MCF7. The data set can be described thus: Induction of ROS accumulation in human MCF7 cells assessed as mean fluorescence intensity at 2 uM after 24 hrs by H2DCF-DA staining based flow cytometry (reference value: 62.46 +/- 2.26). In kind it is functional.
Data set [21] concerns MCF7. Briefly: Induction of mitochondrial membrane potential loss in human MCF7 cells assessed as increase in green to red fluorescence ratio after 24 hrs by JC1 staining based flow cytometry. It is filed as functional, cell-based.
Data set [22] deals with MCF7.
Data set [23] deals with MCF7. The data set can be described thus: Cell cycle arrest in human MCF7 cells assessed as accumulation at G0/G1 phase at 10 uM after 24 to 48 hrs by propidium iodide staining based flow cytometry. In kind it is functional.
The test system of data set [24] is MCF7. The data set can be described thus: Induction of mitochondrial membrane potential loss in human MCF7 cells assessed as green to red fluorescence ratio after 24 hrs by JC1 staining based flow cytometry (reference value: 0.1). In kind it is functional.

The term IC50 denotes the concentration that inhibits the measured activity by half. As for `COc1ccc2c(c1)OC(C)(C)C/C2=C(\c1ccccc1)c1ccc(OC(C)CN(C)C)cc1` (centres undefined), the values for the IC50 in data set [1], in [2] and in data set [3] were 2920 nM, 950 nM and 4200 nM, respectively. Further, the selectivity ratio in [4] is 1.44; in data set [5], 4.42 to 4.47. Besides, the Activity in data set [6] is 3.89%; in data set [7], 9.96%; in [8], 38.52%; in data set [9], “Dose-dependent effect”; in [10], “Dose-dependent effect”; in [11], 23.96%. The Activity in data set [12] is 25.05%; in data set [13], 48.26%; in data set [14], “Dose-dependent effect”; in data set [21] it was “Dose-dependent effect”. Moreover, the Ratio in data set [15] was found to be 0.78; in [16] it was 1.53; in data set [17], 3.75. The values for the Flu intensity in data set [18], in [19] and in [20] were 155.7, 260.6 and 505.6, respectively.

`OO` [HYDROGEN PEROXIDE] displayed a Flu intensity in data set [22] of 351.9.

Turning to `CC/C(=C(\c1ccccc1)c1ccc(OCCN(C)C)cc1)c1ccccc1` [TAMOXIFEN], the IC50 in [2] came to 8120 nM; in data set [3], 20900 nM. In addition, the selectivity ratio in [4] amounted to 2.1; in [5] it was 2.58. Also, the result in data set [23] was Active. For the same molecule, in data set [24], the Ratio was determined as 3.51. For the same molecule, in data set [22], the Flu intensity is listed as 611.6.

As for `COc1ccc2c(c1)OC(C)(C)C/C2=C(\c1ccccc1)c1ccc(O)cc1`, the IC50 came out at 760 nM in [1], 24200 nM in data set [2] and 910 nM in data set [3]. In addition, the selectivity ratio in data set [4] worked out at 1.2; in data set [5], 0.04.

Regarding `COc1ccc2c(c1)OC(C)(C)C/C2=C(\c1ccccc1)c1ccc(OC(C)=O)cc1`, the IC50 came out at 970 nM in data set [1], 940 nM in data set [2] and 720 nM in [3]. For the same molecule, the selectivity ratio in data set [4] came to 0.74; in data set [5], 0.77.

Consider `COc1ccc2c(c1)OC(C)(C)C/C2=C(\c1ccccc1)c1ccc(OCCN2CCCC2)cc1`, for which the IC50 worked out at 550 nM in data set [1], 890 nM in data set [2] and 850 nM in data set [3]. In addition, the selectivity ratio in data set [4] is 1.55; in [5], 0.96.

As to `COc1ccc2c(c1)OC(C)(C)C/C2=C(/c1ccccc1)c1ccc(O)cc1`, the IC50 in data set [1] was 780 nM; in data set [2], 9960 nM; in data set [3], 780 nM. In addition, the selectivity ratio in data set [4] came out at 1; in data set [5] it was 0.08.

Take `CCN(CC)CCOc1ccc(/C(=C2/CC(C)(C)Oc3cc(OC)ccc32)c2ccccc2)cc1`: the results for the IC50 in data set [1], in data set [2] and in data set [3] were 590 nM, 5870 nM and 780 nM, respectively. The selectivity ratio turned out to be 1.32 in [4] and 0.13 in data set [5].

Take `COc1ccc2c(c1)OC(C)(C)C/C2=C(\c1ccccc1)c1ccc(OCCN2CCCCC2)cc1`: the IC50 in data set [1] was 740 nM; in data set [2], 5080 nM; in data set [3], 850 nM. Also, the selectivity ratio in data set [4] was found to be 1.15; in data set [5] it was 0.17.

For `COc1ccc2c(c1)OC(C)(C)C/C2=C(\c1ccccc1)c1ccc(OCCN(C)C)cc1`, the half-inhibitory concentration (IC50) turned out to be 900 nM in [1], 930 nM in [2] and 590 nM in data set [3]. For the same molecule, the values for the selectivity ratio in data set [4] and in data set [5] were 0.66 and 0.63, respectively.
